# From ChEMBL document CHEMBL4819135, “Design, synthesis and anti-HIV evaluation of novel 5-substituted diarylpyrimidine derivatives as potent HIV-1 NNRTIs” (Bioorg Med Chem, 2021)
# How the values were obtained:
# [1] = system: Human immunodeficiency virus 1; experiment: Antiviral activity against HIV-1 IIIB infected in human MT4 cells assessed as protection against virus-induced cytotoxicity after 5 days by MTT assay; assay type: functional, organism-based; details: Human immunodeficiency virus 1, IIIB, MT4, 120 h
# [2] = system: Human immunodeficiency virus 1; experiment: Antiviral activity against HIV-1 IIIB harboring RT L100I mutant infected in human MT4 cells assessed as protection against virus-induced cytotoxicity incubated for 5 days by MTT assay; assay type: functional, organism-based; details: Human immunodeficiency virus 1, IIIB, MT4, 120 h
# [3] = system: Human immunodeficiency virus 1; experiment: Antiviral activity against HIV-1 IIIB harboring RT K103N mutant infected in human MT4 cells assessed as protection against virus-induced cytotoxicity incubated for 5 days by MTT assay; assay type: functional, organism-based; details: Human immunodeficiency virus 1, IIIB, MT4, 120 h
# [4] = system: Human immunodeficiency virus 1; experiment: Antiviral activity against HIV-1 IIIB harboring RT Y181C mutant infected in human MT4 cells assessed as protection against virus-induced cytotoxicity incubated for 5 days by MTT assay; assay type: functional, organism-based; details: Human immunodeficiency virus 1, IIIB, MT4, 120 h
# [5] = system: Human immunodeficiency virus 1; experiment: Antiviral activity against HIV-1 IIIB harboring RT Y188L mutant infected in human MT4 cells assessed as protection against virus-induced cytotoxicity incubated for 5 days by MTT assay; assay type: functional, organism-based; details: Human immunodeficiency virus 1, IIIB, MT4, 120 h
# [6] = system: Human immunodeficiency virus 1; experiment: Antiviral activity against HIV-1 IIIB harboring RT E138K mutant infected in human MT4 cells assessed as protection against virus-induced cytotoxicity incubated for 5 days by MTT assay; assay type: functional, organism-based; details: Human immunodeficiency virus 1, IIIB, MT4, 120 h
# [7] = system: Human immunodeficiency virus 1; experiment: Antiviral activity against HIV-1 IIIB harboring RT F227L/V106A mutant infected in human MT4 cells assessed as protection against virus-induced cytotoxicity incubated for 5 days by MTT assay; assay type: functional, organism-based; details: Human immunodeficiency virus 1, IIIB, MT4, 120 h
# [8] = system: Human immunodeficiency virus 1; experiment: Antiviral activity against HIV-1 RES056 infected in human MT4 cells assessed as protection against virus-induced cytotoxicity incubated for 5 days by MTT assay; assay type: functional, organism-based; details: Human immunodeficiency virus 1, RES056, MT4, 120 h
# [9] = Antiviral activity against HIV-2 ROD infected in human MT4 cells assessed as protection against virus-induced cytotoxicity incubated for 5 days by MTT assay; assay type: functional, cell-based; details: HIV-2, ISOLATE ROD, MT4, 120 h
# [10] = Cytotoxicity against human MT4 cells assessed as reduction in cell viability after 5 days by MTT assay; assay type: cell-based; details: time 5 day
# [11] = system: Human immunodeficiency virus 1; experiment: Potency index, ratio of Etravirine EC50 to test compound EC50 for antiviral activity against HIV-1 IIIB infected in human MT4 cells by MTT assay; assay type: functional
# [12] = system: Human immunodeficiency virus 1; experiment: Potency index, ratio of Etravirine EC50 to test compound EC50 for antiviral activity against HIV-1 IIIB harboring RT E138K mutant infected in human MT4 cells by MTT assay; assay type: functional
Compound,EC50 [1] [nM],EC50 [2] [nM],EC50 [3] [nM],EC50 [4] [nM],EC50 [5] [nM],EC50 [6] [nM],EC50 [7] [nM],EC50 [8] [nM],EC50 [9] [nM],CC50 at 120 h [10] [nM],Ratio EC50 [11],Ratio EC50 [12]
Cc1cc(C#N)cc(C)c1Oc1nc(Nc2ccc(C#N)cc2)ncc1-c1ccc(Cl)cc1,14.4,216,19.5,250,567,72.6,902,5120,> 72600,72600,–,–
COc1ccc(-c2cnc(Nc3ccc(C#N)cc3)nc2Oc2c(C)cc(C#N)cc2C)cc1,8,164,14.6,186,143,38.4,278,3770,> 279000,> 279000,–,–
Cc1cc(C)cc(-c2cnc(Nc3ccc(C#N)cc3)nc2Oc2c(C)cc(C#N)cc2C)c1,102,421,135,833,2230,319,1110,> 38800,> 38800,39000,–,–
Cc1cc(C#N)cc(C)c1Oc1nc(Nc2ccc(C#N)cc2)ncc1-c1ccoc1,3.3,19.1,4.4,17.9,22.6,9.3,32.4,395,> 4980,4980,–,–
Cc1cc(C#N)cc(C)c1Oc1nc(Nc2ccc(C#N)cc2)ncc1-c1ccc2ccccc2c1,16.8,195,35.7,356,849,76.9,1200,> 8460,> 8460,8460,–,–
Cc1cc(C#N)cc(C)c1Oc1nc(Nc2ccc(C#N)cc2)ncc1-c1cncnc1,4.6,38.3,5.3,32.4,73.4,11.8,325,316,> 298000,> 298000,–,–
Cc1ccc(-c2cnc(Nc3ccc(C#N)cc3)nc2Oc2c(C)cc(C#N)cc2C)cc1,11.7,138,20.3,347,267,57.2,707,> 10600,> 26100,26100,–,–
Cc1cc(C#N)cc(C)c1Oc1nc(Nc2ccc(C#N)cc2)ncc1-c1ccc(N)cc1,3.5,20.5,3.8,41.6,33.5,10.5,44.1,> 306,> 310,310,–,–
Cc1cc(C#N)cc(C)c1Oc1nc(Nc2ccc(C#N)cc2)ncc1-c1ccco1,3.6,24.8,4.7,30.4,37.4,9.3,75.3,1010,> 307000,> 307000,–,–
Cc1cc(C#N)cc(C)c1Oc1nc(Nc2ccc(C#N)cc2)ncc1-c1ccsc1,4.1,53.4,4.3,57.1,41.8,10.7,64.8,1440,> 3920,3920,–,–
Cc1cc(C#N)cc(C)c1Oc1nc(Nc2ccc(C#N)cc2)ncc1-c1ccc(C(F)(F)F)cc1,11.5,246,25.4,235,598,60.3,724,5460,> 35000,35000,–,–
Cc1cc(C#N)cc(C)c1Oc1nc(Nc2ccc(C#N)cc2)ncc1-c1cccs1,4.9,21.1,4.8,36,57.5,12.9,269,1150,> 6430,6430,–,–
Cc1cc(C#N)cc(C)c1Oc1nc(Nc2ccc(C#N)cc2)ncc1-c1cccnc1,2.5,24.2,2.7,23.5,20,7.1,112,300,> 13500,13500,1.2,1.4
Cc1cc(C#N)cc(C)c1Oc1nc(Nc2ccc(C#N)cc2)ncc1-c1cccc2ccccc12,934,2670,1820,21700,10600,5450,38400,218000,> 267000,> 267000,–,–
Cc1cc(C#N)cc(C)c1Oc1nc(Nc2ccc(C#N)cc2)ncc1-c1ccc(F)cc1,6.2,159,10.1,113,102,18.5,526,5000,> 42700,42700,–,–
Cc1cc(C#N)cc(C)c1Oc1nc(Nc2ccc(C#N)cc2)ncc1-c1ccccc1,24.4,446,63.5,576,222,122,881,9130,> 31800,31800,–,–
Cc1cc(C#N)cc(C)c1Oc1nc(Nc2ccc(C#N)cc2)ncc1-c1ccc(-c2ccccc2)cc1,20.5,195,29.5,361,1320,112,1220,8520,> 253000,> 253000,–,–
O=C1Nc2ccc(Cl)cc2[C@@](C#CC2CC2)(C(F)(F)F)O1 [EFAVIRENZ],–,30.8,–,–,–,–,–,273,–,> 6340,–,–
Cc1cc(C#N)cc(C)c1Oc1nc(Nc2ccc(C#N)cc2)nc(N)c1Br [ETRAVIRINE],–,–,–,–,–,–,–,–,–,> 4590,–,–
Cc1ccnc2c1NC(=O)c1cccnc1N2C1CC1 [NEVIRAPINE],133,589,2320,3670,5350,115,4310,10700,–,> 15000,–,–
Cc1cn([C@H]2C[C@H](N=[N+]=[N-])[C@@H](CO)O2)c(=O)[nH]c1=O [ZIDOVUDINE],–,–,–,–,–,–,–,20.1,–,> 7480,–,–
